Assay results taken from ChEMBL document CHEMBL6071165, “Design, synthesis and biological evaluation of plant-derived miliusol derivatives achieve TNBC profound regression in vivo” (Eur J Med Chem, 2024).
Active and inactive are the calls of the source. No cut-off for these calls is given here.

Tests used:
[1] = Selectivity ratio of IC50 for antiproliferative activity against human MCF-10A cells assessed as inhibition of cell proliferation incubated for 24 hrs by MTT assay to IC50 for antiproliferative activity against human MDA-MB-231 cells assessed as inhibition of cell proliferation incubated for 24 hrs by MTT assay; type: cell-based; details: MCF-10A cells versus MDA-MB-231 cells, read-out: Ratio IC50
[2] = test system: MDA-MB-231; test: Inhibition of colony formation in human MDA-MB-231 cells incubated for 7 days by Crystal violet staining based analysis; type: functional, cell-based; details: dose 0.5-2 µM, time 7.0 day
[3] = test system: BT-549; test: Inhibition of DNA replication in human BT-549 cells assessed as reduction in EDU fluorescence intensity by EDU staining based fluorescence microscopic analysis; type: functional, cell-based; details: dose 0.5-2 µM
[4] = test system: BT-549; test: Inhibition of cell proliferation in human BT-549 cells assessed as reduction in Ki-67 expression at 0.5 to 2 uM incubated for 24 hrs by DAPI staining based immunofluorescence analysis; type: functional; details: dose 0.5-2 µM
[5] = test system: BT-549; test: Inhibition of cell migration in human BT-549 cells assessed as decrease in SNAIL level at 1 uM incubated for 24 hrs by DAPI staining based immunofluorescence analysis; type: functional
[6] = test system: MDA-MB-231; test: Inhibition of cell migration in human MDA-MB-231 cells assessed as reduction in MMP-2 protein level at 1 uM incubated for 24 hrs by DAPI staining based immunofluorescence analysis; type: functional
[7] = test system: BT-549; test: Downregulation of c-Jun level in human BT-549 cells incubated for 24 hrs by Western blot analysis; type: functional, cell-based; details: dose 0.5-2 µM
[8] = test system: BT-549; test: Inhibition of glycolysis in human BT-549 cells assessed as reduction in lactate production at 0.5 to 2 uM; type: functional, cell-based; details: dose 0.5-2 µM
[9] = test system: MDA-MB-231; test: Inhibition of glycolysis in human MDA-MB-231 cells assessed as reduction in glucose uptake at 0.5 to 2 uM incubated for 24 hrs followed by 2-NBDG staining based flow cytometric analysis; type: functional, cell-based; details: dose 0.5-2 µM
[10] = test system: BT-549; test: Downregulation of LDHA expression in human BT-549 cells at 1 uM incubated for 24 hrs by DAPI staining based immunofluorescence analysis; type: functional, cell-based
[11] = test system: BT-549; test: Inhibition of glycolysis in human BT-549 cells assessed as decrease in GLUT4 protein level at 0.5 to 2 uM incubated for 24 hrs by Western blot analysis; type: functional, cell-based; details: dose 0.5-2 µM
[12] = test system: BT-549; test: Induction of ER stress in human BT-549 cells assessed as appearance of large number of vacuoles at 1 uM incubated for 24 hrs by TEM analysis; type: functional, cell-based
[13] = test system: BT-549; test: Inhibition of glycolysis in human BT-549 cells assessed as decrease in LDHA protein level at 0.5 to 2 uM incubated for 24 hrs by Western blot analysis; type: functional, cell-based; details: dose 0.5-2 µM
[14] = test system: MDA-MB-231; test: Inhibition of glycolysis in human MDA-MB-231 cells assessed as decrease in LDHA protein level at 0.5 to 2 uM incubated for 24 hrs by Western blot analysis; type: functional, cell-based; details: dose 0.5-2 µM
[15] = test system: BT-549; test: Induction of ER stress in human BT-549 cells assessed as increase in calcium ion content at 2 uM incubated for 24 hrs by Fluo-3AM staining based flow cytometric analysis; type: functional, cell-based
[16] = test system: BT-549; test: Induction of ER stress in human BT-549 cells assessed as activation of CHOP protein level incubated for 24 hrs by Western blot analysis; type: functional, cell-based; details: dose 0.5-2 µM
[17] = test system: MDA-MB-231; test: Induction of ER stress in human MDA-MB-231 cells assessed as increase in calcium ion content at 2 uM incubated for 24 hrs by Fluo-3AM staining based flow cytometric analysis; type: functional, cell-based
[18] = test system: MDA-MB-231; test: Induction of apoptosis in human MDA-MB-231 cells incubated for 24 hrs by Annexin V-PI staining based flow cytometric analysis; type: functional, cell-based; details: dose 0.5-2 µM
[19] = test system: BT-549; test: Induction of apoptosis in human BT-549 cells assessed as late apoptotic cells at 2 uM incubated for 24 hrs by Annexin V-PI staining based flow cytometric analysis (reference value: 2.95%); type: functional
[20] = test system: MDA-MB-231; test: Induction of apoptosis in human MDA-MB-231 cells assessed as viable cells at 1 uM incubated for 24 hrs by Annexin V-PI staining based flow cytometric analysis (reference value: 96.5%); type: functional; details: read-out: Activity
[21] = test system: MDA-MB-231; test: Induction of apoptosis in human MDA-MB-231 cells assessed as late apoptotic cells at 1 uM incubated for 24 hrs by Annexin V-PI staining based flow cytometric analysis (reference value: 1.83%); type: functional
[22] = test system: MDA-MB-231; test: Induction of apoptosis in human MDA-MB-231 cells assessed as upregulation of cleavage of PARP level at 0.5 to 2 uM incubated for 24 hrs by Western blot analysis; type: functional, cell-based; details: dose 0.5-2 µM
[23] = test system: MDA-MB-231; test: Antitumor activity against human MDA-MB-231 cells xenografted in female BALB/c mouse model assessed as reduction in tumor volume administered subcutaneously and measured every day; type: functional, cell-based; details: dose 5-20 mg/kg, route sc
[24] = test system: MDA-MB-231; test: Antitumor activity against human MDA-MB-231 cells xenografted in female BALB/c mouse model assessed as reduction in tumor weight administered subcutaneously and measured every day; type: functional, cell-based; details: dose 5-20 mg/kg, route sc
[25] = Toxicity in female BALB/c mouse xenografted with human MDA-MB-231 cells assessed as effect on body weight at 5 to 20 mg/kg, sc and measured daily; type: organism-based; details: in vivo, dose 5-20 mg/kg
[26] = test system: MDA-MB-231; test: Antiproliferative activity against human MDA-MB-231 cells xenografted in female BALB/c mouse model assessed as fold change in inhibition of PKM2 expression at 5 mg/kg administered subcutaneously incubated for 24 hrs by Western blot analysis (reference value: 1.00%); type: functional; details: route sc
[27] = test system: BT-549; test: Antiproliferative activity against human BT-549 cells xenografted in female BALB/c mouse model assessed as inhibition of Ki-67 expression at 5 to 20 mg/kg administered subcutaneously by immunohistochemical staining based microscopic analysis; type: functional, organism-based; details: dose 5-20 mg/kg, route sc
[28] = test system: MDA-MB-231; test: Antiproliferative activity against human MDA-MB-231 cells xenografted in female BALB/c mouse model assessed as fold change in inhibition of PKM2 expression at 10 mg/kg administered subcutaneously incubated for 24 hrs by Western blot analysis (reference value: 1.00%); type: functional; details: route sc
[29] = test system: BT-549; test: Antiproliferative activity against human BT-549 cells xenografted in female BALB/c mouse model assessed as fold change in downregulation of MMP-2 protein level at 20 mg/kg administered subcutaneously incubated for 24 hrs by Western blot analysis (reference value: 1.00%); type: functional; details: route sc
[30] = test system: BT-549; test: Antiproliferative activity against human BT-549 cells xenografted in female BALB/c mouse model assessed as fold change in upregulation of BIP protein level at 10 mg/kg administered subcutaneously incubated for 24 hrs by Western blot analysis (reference value: 1.00%); type: functional; details: route sc
[31] = test system: MDA-MB-231; test: Antiproliferative activity against human MDA-MB-231 cells xenografted in female BALB/c mouse model assessed as fold change in upregulation of BAX protein level at 20 mg/kg administered subcutaneously incubated for 24 hrs by Western blot analysis (reference value: 1.00%); type: functional; details: route sc
[32] = test system: BT-549; test: Antiproliferative activity against human BT-549 cells xenografted in female BALB/c mouse model assessed as as fold change in cleavage of caspase-3 level at 10 mg/kg administered subcutaneously incubated for 24 hrs by Western blot analysis (reference value: 1.00%); type: functional; details: route sc
[33] = Toxicity in female BALB/c mouse assessed as change in liver administered subcutaneously measured upto 16 days; type: tissue-based; details: in vivo, sc, 384 h, time < 16 day

With CC(C)=CCC/C(C)=C/[C@H]1OC(=O)CC12C[C@H](OC(=O)Cc1ccc(NC(=O)/C=C/c3ccccc3)cc1)C=CC2=O (stereo partly drawn) the selectivity ratio at 24 h [1] was 67.2, the inhibition [2] was “Dose-Dependent Effect” and the inhibition [3] was “Dose-Dependent Effect”. For the same molecule, the inhibition [4] was “Active”, the inhibition [5] was “Active” and the inhibition [6] was “Active”. For the same molecule, the Activity [7] was “Dose-Dependent Effect”, the inhibition [8] was “Active” and the inhibition [9] was “Active”. The Activity [10] was “Active”, the inhibition [11] was “Active” and the Activity [12] was “Active”. For the same molecule, the inhibition [13] was “Active”, the inhibition [14] was “Active” and the Activity [15] was “Active”. The Activity [16] was “Dose-Dependent Effect”, the Activity [17] was “Active” and the Activity [18] was “Dose-Dependent Effect”. The Activity [19] was 50.1%, the viability at 1 µM [20] was 42% and the Activity [21] was 41.2%. The Activity [22] was “Active”, the Activity [23] was “Dose-Dependent Effect” and the Activity [24] was “Dose-Dependent Effect”. For the same molecule, the Activity [25] was “Non-Toxic”, the “fold change (FC)” value [26] was 0.81 and the Activity [27] was “Active”. The “fold change (FC)” value [28] was 0.62, the “fold change (FC)” value [29] was 0.17 and the “fold change (FC)” value [30] was 1.9. For the same molecule, the “fold change (FC)” value [31] was 1.82, the “fold change (FC)” value [32] was 1.72 and the Activity [33] was “Non-Toxic”.
